# According to article PMC9551036, “A selective and orally bioavailable VHL-recruiting PROTAC achieves SMARCA2 degradation in vivo” (Nature Communications, 2022):
# Values joined by “and” are separate entries in the source; they are usually repeats but may differ in a detail not shown here. Equal entries are not always repeated. Where two headings read alike, the source gives them in different places.
# Test: Pharmacokinetic analyses in mouse
# Assay type: in vivo
# Conditions: for AUC(0-t): read-out: AUC0-24h; for AUC(0-inf): read-out: AUC0-inf
# Method: Compound concentrations in plasma aliquots were measured by quantitative HPLC-MS/MS using an internal standard. Calibration and quality control samples were prepared using blank plasma from untreated animals. Samples were precipitated with acetonitrile and injected into a HPLC system (Agilent 1200). Separation was performed by gradients of 5 mmol/L ammonium acetate pH 4.0 and acetonitrile with 0.1% formic acid on a 2.1 mm by 50 mm XBridge BEH C18 reversed-phase column with 2.5 µm particles (Waters). The HPLC was interfaced by ESI operated in positive ionisation mode to a triple quadrupole mass spectrometer (5000 or 6500+ Triple Quad System, SCIEX) operated in multiple reaction monitoring mode. Transitions were 532.4 to 432.8 m/z for BI01810284, 525.6 to 425.7 m/z for BI01802983 and 1021.6 to 624.2 m/z for BI01580883. Chromatograms were analyzed with Analyst (SCIEX) and pharmacokinetic parameters were calculated by non-compartmental analysis using BI-proprietary software.
# [1] = 5 mg/kg i.v., individual animals
# [2] = 30 mg/kg p.o., individual animals
# [3] = NMRI, mouse, plasma, iv, 5 mg/kg, NMRI mice, i.v., 5 mg/kg, PK study
# [4] = NMRI, mouse, plasma, po, 30 mg/kg, NMRI mice, p.o., 30 mg/kg, PK study
# [5] = mouse, 5 mg/kg i.v., NCA, individual animals, 5 mg/kg
# [6] = mouse, 30 mg/kg p.o., NCA, individual animals, 30 mg/kg
structure (smiles),measurement,setting,value
Cc1ncsc1-c1ccc(C(CCC(C)CCN2CCC(c3ccc4c(c3)n(C3CCCC3)c3nc(=O)c5c(Br)cccc5n43)CC2)NC(=O)C2CC(O)CN2C(=O)C(NC(=O)C2(F)CC2)C(C)(C)C)cc1 (centres unmarked) [ACBI2],AUC,[1],41.8 µM·h and 38 µM·h
same,AUCinf,[1],42.3 µM·h and 38.4 µM·h
same,Concentration,"5 mg/kg i.v., time 0.25 h, individual animals",6.8 µM
same,Concentration,"5 mg/kg i.v., time 1 h, individual animals",5.13 µM
same,Concentration,"5 mg/kg i.v., time 6 h, individual animals",1.22 µM
same,Concentration,"5 mg/kg i.v., time 24 h, individual animals",0.0949 µM
same,F,"30 mg/kg p.o. vs 5 mg/kg i.v., individual animals",23.8% and 20.9%
same,AUC,[2],53.9 µM·h and 47.2 µM·h
same,AUCinf,[2],55 µM·h and 48.3 µM·h
same,MRT,"NMRI, mouse, plasma, iv, 5 mg/kg, NMRI mice, PK study",3.8 h
same,AUC(0-t),[3],38 µM·h
same,AUC(0-inf),[3],38 µM·h
same,clearance,"NMRI, mouse, plasma, iv, 5 mg/kg, NMRI mice, i.v., 5 mg/kg, PK study, read-out: Clearance",2 mL/min/kg
same,Vd,"NMRI, mouse, plasma, iv, 5 mg/kg, NMRI mice, i.v., 5 mg/kg, PK study, read-out: Vss",0.47 L/kg
same,MRT,"NMRI, mouse, plasma, po, 30 mg/kg, NMRI mice, PK study",6.1 h
same,AUC(0-t),[4],50 µM·h
same,AUC(0-inf),[4],51 µM·h
same,bioavailability,"NMRI, mouse, plasma, po, 30 mg/kg, NMRI mice, p.o., 30 mg/kg, PK study, read-out: Bioavailability",22%
same,AUC(0-t),"NMRI, mouse, plasma, po, 80 mg/kg, NMRI mice, p.o., 80 mg/kg, Xenograft study",84 µM·h
same,Plasma concentration,"mouse, 5 mg/kg i.v., 0.25 h, individual animals, 5 mg/kg",7.53 µM and 7.36 µM
same,Plasma concentration,"mouse, 5 mg/kg i.v., 1 h, individual animals, 5 mg/kg",6 µM and 5.66 µM
same,Plasma concentration,"mouse, 5 mg/kg i.v., 6 h, individual animals, 5 mg/kg",1.62 µM and 1.38 µM
same,Plasma concentration,"mouse, 5 mg/kg i.v., 24 h, individual animals, 5 mg/kg",0.0855 µM and 0.0743 µM
same,AUC,[5],41.8 µM·h and 38 µM·h
same,AUCinf,[5],42.3 µM·h and 38.4 µM·h
same,CL,[5],1.85 mL/min/kg and 2.04 mL/min/kg
same,Vss,[5],0.426 L/kg and 0.449 L/kg
same,Plasma concentration,"mouse, 30 mg/kg p.o., 0.333 h, individual animals, 30 mg/kg",0.968 µM and 1.53 µM
same,Plasma concentration,"mouse, 30 mg/kg p.o., 1 h, individual animals, 30 mg/kg",4.18 µM and 4.16 µM
same,Plasma concentration,"mouse, 30 mg/kg p.o., 2 h, individual animals, 30 mg/kg",4.46 µM and 4.88 µM
same,Plasma concentration,"mouse, 30 mg/kg p.o., 6 h, individual animals, 30 mg/kg",3.38 µM and 2.65 µM
same,Plasma concentration,"mouse, 30 mg/kg p.o., 24 h, individual animals, 30 mg/kg",0.173 µM and 0.175 µM
same,AUC,[6],53.9 µM·h and 47.2 µM·h
same,AUCinf,[6],55 µM·h and 48.3 µM·h
same,F,[6],23.8% and 20.9%
same,concentration at 0.25 h,"mouse, plasma, intravenous, 5 mg/kg, 5 mg/kg i.v., time 0.25 h, individual animals, read-out: Concentration",7.53 µM
same,concentration at 1 h,"mouse, plasma, intravenous, 5 mg/kg, 5 mg/kg i.v., time 1 h, individual animals, read-out: Concentration",6 µM
same,concentration at 6 h,"mouse, plasma, intravenous, 5 mg/kg, 5 mg/kg i.v., time 6 h, individual animals, read-out: Concentration",1.62 µM
